The record followed here is patent publication US7503965B2, “Azo compound, ink composition, and colored object” (Nippon Kayaku Kabushiki Kaisha, priority 2004, dated 2009).

Where only a bound is given, the exact number is not on record here.

The nature of this data set: solubility in water (ammonia alkali) by filter paper spot. The following applies: aqueous buffer. Format: physicochemical.

Consider `Nc1c(N=Nc2ccc3c(O)c(N=Nc4cc(S(=O)(=O)O)c(N=Nc5c(C(=O)O)nn(-c6ccc(S(=O)(=O)O)cc6)c5O)cc4S(=O)(=O)O)c(S(=O)(=O)O)cc3c2S(=O)(=O)O)cc(S(=O)(=O)O)c2cc(S(=O)(=O)O)c(N=Nc3ccc([N+](=O)[O-])cc3S(=O)(=O)O)c(O)c12` [compound 9], for which the solubility (commonly the concentration that dissolves in the medium under given conditions) was at least 100 mg/mL.

`Nc1c(N=Nc2ccc3c(O)c(N=Nc4cc(Cl)c(N=Nc5c(C(=O)O)nn(-c6ccc(S(=O)(=O)O)cc6)c5O)c(S(=O)(=O)O)c4)c(S(=O)(=O)O)cc3c2S(=O)(=O)O)cc(S(=O)(=O)O)c2cc(S(=O)(=O)O)c(N=Nc3ccc([N+](=O)[O-])cc3S(=O)(=O)O)c(O)c12` [compound 25] registered a solubility of at least 100 mg/mL.

For the molecule `Nc1c(N=Nc2ccc3c(O)c(N=Nc4ccc(N=Nc5c(C(=O)O)nn(-c6ccc(S(=O)(=O)O)cc6)c5O)c(S(=O)(=O)O)c4)c(S(=O)(=O)O)cc3c2S(=O)(=O)O)cc(S(=O)(=O)O)c2cc(S(=O)(=O)O)c(N=Nc3ccc(S(=O)(=O)O)cc3[N+](=O)[O-])c(O)c12` [compound 22], the solubility is at least 100 mg/mL.

Regarding `COc1cc([N+](=O)[O-])c(S(=O)(=O)O)cc1N=Nc1c(S(=O)(=O)O)cc2c(S(=O)(=O)O)cc(N=Nc3ccc4c(O)c(N=Nc5ccc(N=Nc6c(C(=O)O)nn(-c7ccc(S(=O)(=O)O)cc7)c6O)c(S(=O)(=O)O)c5)c(S(=O)(=O)O)cc4c3S(=O)(=O)O)c(N)c2c1O` [compound 24], the solubility is at least 100 mg/mL.

In the case of `Nc1c(N=Nc2ccc3c(O)c(N=Nc4ccc(S(=O)(=O)O)c(/N=N/c5c(C(=O)O)nn(-c6ccc(S(=O)(=O)O)cc6)c5O)c4)c(S(=O)(=O)O)cc3c2S(=O)(=O)O)cc(S(=O)(=O)O)c2cc(S(=O)(=O)O)c(N=Nc3ccc([N+](=O)[O-])cc3S(=O)(=O)O)c(O)c12` [compound 13], the solubility was at least 100 mg/mL.

For the molecule `Nc1c(N=Nc2ccc3c(O)c(N=Nc4cc(S(=O)(=O)O)c(N=Nc5c(C(=O)O)nn(-c6ccc(S(=O)(=O)O)cc6)c5O)cc4S(=O)(=O)O)c(S(=O)(=O)O)cc3c2S(=O)(=O)O)cc(S(=O)(=O)O)c2cc(S(=O)(=O)O)c(N=Nc3ccc(S(=O)(=O)O)cc3[N+](=O)[O-])c(O)c12` [compound 23], the solubility was at least 100 mg/mL.

The molecule `Nc1c(N=Nc2ccc3c(O)c(N=Nc4cc(C(=O)O)c(N=Nc5c(C(=O)O)nn(-c6ccc(S(=O)(=O)O)cc6)c5O)c(S(=O)(=O)O)c4)c(S(=O)(=O)O)cc3c2S(=O)(=O)O)cc(S(=O)(=O)O)c2cc(S(=O)(=O)O)c(N=Nc3ccc([N+](=O)[O-])cc3S(=O)(=O)O)c(O)c12` [compound 26] came in with a solubility of at least 100 mg/mL.

Turning to `Nc1c(N=Nc2ccc3c(O)c(N=Nc4ccc(N=Nc5c(C(=O)O)nn(-c6cc(C(=O)O)cc(C(=O)O)c6)c5O)c(S(=O)(=O)O)c4)c(S(=O)(=O)O)cc3c2S(=O)(=O)O)cc(S(=O)(=O)O)c2cc(S(=O)(=O)O)c(N=Nc3ccc([N+](=O)[O-])cc3S(=O)(=O)O)c(O)c12` [compound 27], the solubility is at least 100 mg/mL.

Molecule `Nc1c(N=Nc2ccc3c(O)c(N=Nc4ccc(N=Nc5c(C(=O)O)nn(-c6cc(S(=O)(=O)O)ccc6S(=O)(=O)O)c5O)c(S(=O)(=O)O)c4)c(S(=O)(=O)O)cc3c2S(=O)(=O)O)cc(S(=O)(=O)O)c2cc(S(=O)(=O)O)c(N=Nc3ccc([N+](=O)[O-])cc3S(=O)(=O)O)c(O)c12` [compound 21] registered a solubility of at least 100 mg/mL.

`Nc1c(N=Nc2ccc3c(O)c(N=Nc4ccc(N=Nc5c(C(=O)O)nn(-c6ccc(S(=O)(=O)O)cc6)c5O)c(S(=O)(=O)O)c4)c(S(=O)(=O)O)cc3c2S(=O)(=O)O)cc(S(=O)(=O)O)c2cc(S(=O)(=O)O)c(N=Nc3ccc([N+](=O)[O-])cc3S(=O)(=O)O)c(O)c12` [compound 1] registered a solubility of at least 100 mg/mL.
